Assay results reported in patent US20240131034A1, “METHODS OF TREATING STAPHYLOCOCCUS AUREUS BACTEREMIA INFECTIONS” (Basilea Pharmaceutica International AG, Allschwil, priority 2022, published 2024).
“Also recorded” adds a separate entry of the source.

How the values were obtained:
[1] = test system: Staphylococcus aureus bacteremia (SAB); experiment: Phase 3 study of ceftobiprole vs daptomycin ± aztreonam in complicated SAB (NCT03138733): efficacy; format: in vivo, human; conditions: for DRC-assessed SAB relapses: 4 patients on daptomycin (2 MSSA, 2 MRSA), 2 patients on ceftobiprole (all MSSA); for Overall success rate in patients with high vancomycin MICs of 2-8 mg/L: 16 patients (8 MRSA, 8 MSSA), 7/8 vs 4/8; for Adjusted difference ceftobiprole − daptomycin ± aztreonam (95% CI): DRC overall success at PTE (mITT): Cochran-Mantel-Haenszel weights, adjusted for dialysis status and prior antibacterial treatment use; for Non-inferiority for overall success at PTE (70 days post-randomization): pre-specified −15% non-inferiority margin
[2] = format: in vivo
Procedure: Safety population: The safety population consisted of all randomized patients who received any amount/dose of study medication. Patients in the safety population were analyzed according to the first medication actually received.
Ceftohiprole 500 mg (as 667 mg ceftobiprole medocaril) was administered as a 2-hour intravenous (i.v.) infusion every 6 hours in the first 8 days, and every 8 hours from Day 9 onwards (with dose and/or schedule adjusted in patients with renal impairment). Daptomycin weight-based at 6 mg/kg (up to 10 mg/kg in accordance with institutional standards) administered as 0.5-hour i.v. infusion every 24 hours (with schedule adjusted in patients with renal impairment). Optional aztreonam 1000 mg fixed dose administered as 0.5-hour i.v. infusion every 24 hours (with dose adjusted in patients with renal impairment). The target treatment duration in Part I was 21-28 days of study medication, with a maximum treatment duration of 28 days. The maximum treatment duration In Part 2 was 42 days.
• 1. All-cause mortality assessed at Day 70 (PTE visit) in the mITT population. • 2. Microbiological cradication assessed by the DRC at Day 70 (PTE visit) in the mITT population. • 3. The overall success rate in the ITT, mITT, and CE populations; • a) at the BOT and PTE (ITT and CE populations only) visits • b) at the EOT and PTE visits, for RIE vs non-IE SAB • c) at the EOT and PTE visits, by renal-function status • 4. Development of new metastatic foci or other complications of SAB after Day 7 assessed in the mITT and CE populations. • 5. Time to S. aureus bloodstream clearance, defined as the elapsed time (days) from randomization to bloodstream clearance, with bloodstream clearance defined as the occurrence of two consecutive study days with blood-culture-negative assessments for S. aureus. • 6. Safety and tolerability based on incidence, type, severity, and relationship to study medication of AEs; and changes in laboratory tests • 7. Pharmacokinetics of ceftobiprole in the PK population

MSSA = experiment: MIC of baseline blood S. aureus isolates: MSSA; format: cell-based, Staphylococcus aureus; conditions: MSSA samples
Text: (§1) The distribution of ceftobiprole, daptomycin, and aztreonam MICs, including MIC50, MIC90, and MIC range, for blood S. aureus, MRSA, and MSSA, was tabulated for the mITT and CE populations. The shifts in ceftobiprole, daptomycin, and aztreonam MIC results from baseline to PTE, and the shifts in ceftobiprole, daptomycin, and aztreonam MIC results from baseline to the maximum value post-baseline by baseline infecting organisms (i.e., pathogens), were presented overall and by geographical region in the mITT and CE populations.

MRSA = experiment: MIC of baseline blood S. aureus isolates: MRSA; format: cell-based, Staphylococcus aureus; conditions: MRSA samples
Text: as §1

S. aureus = experiment: On-treatment MIC shifts and MIC vs clinical failure, blood S. aureus; format: cell-based, Staphylococcus aureus; conditions: MIC of the drug received, daptomycin: three patients (two MSSA, one MRSA)
Text: as §1

[3] = test system: acute bacterial skin and soft tissue infections; conditions: TARGET Phase 3; Overcash et al.; cited from earlier work
[4] = prolonged (>4 weeks) ceftobiprole treatment; cited from earlier work
[5] = mITT, S. aureus (overall), bloodstream clearance = two consecutive study days with negative blood culture
[6] = mITT, Cochran-Mantel-Haenszel adjusted
[7] = mITT, Cochran-Mantel-Haenszel adjusted, listed as ceftobiprole

## CCCCCCCCCC(=O)N[C@@H](Cc1c[nH]c2ccccc12)C(=O)N[C@H](CC(N)=O)C(=O)N[C@@H](CC(=O)O)C(=O)N[C@@H]1C(=O)NCC(=O)N[C@@H](CCCN)C(=O)N[C@@H](CC(=O)O)C(=O)N[C@H](C)C(=O)N[C@@H](CC(=O)O)C(=O)NCC(=O)N[C@H](CO)C(=O)N[C@@H]([C@H](C)CC(=O)O)C(=O)N[C@@H](CC(=O)c2ccccc2N)C(=O)O[C@@H]1C [Daptomycin, reference compound]
[1]
  DRC-assessed SAB relapses: 3.0%
  Overall success rate in patients with high vancomycin MICs of 2-8 mg/L: 50.0%
[1]; mITT, MRSA
  Median time (days) clearance (95% CI): 5 days
  Patients with clearance achieved: 87.8%
[1]; mITT, MSSA
  Median time (days) clearance (95% CI): 4 days
  Patients with clearance achieved: 95.2%
[1]; mITT, S. aureus (overall)
  Median time (days) clearance (95% CI): 4 days
[1]; [5]
  Patients with clearance achieved: 92.9%
[2]; Safety population
  Drug-related AEs leading to discontinuation: cosinophilic pneumonia: 2 n
  Drug-related AEs leading to discontinuation: myopathy: 1 n
[2]; in vivo
  Tolerability / safety in patients with complicated SAB: well tolerated
MSSA
  Isolates at MIC 0.25 mg/L: 28%
  Isolates at MIC 0.5 mg/L: 71%
  Isolates at MIC either 0.25 mg/L or 0.5 mg/L: 99%
MRSA
  Isolates at MIC 0.25 mg/L: 22%
  Isolates at MIC 0.5 mg/L: 76%
  Isolates at MIC 1 mg/L: 2%
S. aureus
  On-treatment increases in MICs by ≥four-fold, patients: 1.5%

## Nc1nc(/C(=N/O)C(=O)N[C@@H]2C(=O)N3C(C(=O)O)=C(/C=C4\CCN([C@@H]5CCNC5)C4=O)CS[C@H]23)ns1 [Ceftobiprole]
[1]
  DRC-assessed SAB relapses: 1.1%
  Overall success rate in patients with high vancomycin MICs of 2-8 mg/L: 87.5%
[1]; CE, Cochran-Mantel-Haenszel adjusted
  Adjusted difference ceftobiprole − daptomycin ± aztreonam (95% CI): DRC overall success at PTE (CE): 0.6% (−8.3. 9.5)
[1]; MRSA isolates typed by MLST, spa and SCCmec, 16/21 vs 16/23
  Overall success at the PTE visits, patients with MRSA of USA clonal strain type: 76.2%
[1]; mITT
  Investigator-assessed overall success at the PTE visit: 73.5%
  Patients who died through the PTE visit: 9.0%
  Patients who experienced new metastatic foci or other complications of SAB after Day 7: 5.8%
  Patients with microbiological eradication at the PTE visit: 82.0%
  Adjusted difference ceftobiprole − daptomycin ± aztreonam (95% CI): DRC overall success at PTE (mITT): 2.0% (−7.1, 11.1)
  Non-inferiority for overall success at PTE (70 days post-randomization): non-inferiority of ceftobiprole
[1]; mITT, 95% CI: −4.2, 13.5
  Adjusted proportion difference: investigator-assessed overall success at PTE: 4.7%
[1]; mITT, 70 days post-randomization
  Responders (overall success at the PTE visit): 69.8%
[1]; [6]
  Adjusted difference ceftobiprole − daptomycin ± aztreonam (95% CI): ACM through PTE: −0.5% (−6.2, 5.2)
  Adjusted difference ceftobiprole − daptomycin ± aztreonam (95% CI): death due to SAB (DRC): 0.4% (−3.2, 4.0)
  Adjusted difference ceftobiprole − daptomycin ± aztreonam (95% CI): microbiological response at PTE: 5.1% (−2.9, 13.0)
  Adjusted difference ceftobiprole − daptomycin ± aztreonam (95% CI): new metastatic foci or other complications of SAB after Day 7: 0.1% (−4.6, 4.8)
[1]; [7]
  Adjusted difference ceftobiprole − daptomycin ± aztreonam (95% CI): ACM through PTE: −0.5%
  Adjusted difference ceftobiprole − daptomycin ± aztreonam (95% CI): microbiological response at PTE: 5.1%
  Adjusted difference ceftobiprole − daptomycin ± aztreonam (95% CI): new metastatic foci or other complications of SAB after Day 7: 0.1%
[1]; mITT, listed as ceftobiprole
  Adjusted difference ceftobiprole − daptomycin ± aztreonam (95% CI): DRC overall success at PTE (mITT): 2.0%
  Non-inferiority for overall success at PTE (70 days post-randomization): non-inferiority of ceftobiprole to daptomycin±aztreonam; also recorded: non-inferior to daptomycin
[1]; mITT, MRSA
  Median time (days) clearance (95% CI): 5 days
  Patients with clearance achieved: 93.3%
[1]; mITT, MSSA
  Median time (days) clearance (95% CI): 3 days
  Patients with clearance achieved: 94.3%
[1]; mITT, S. aureus (overall)
  Median time (days) clearance (95% CI): 4 days
[1]; [5]
  Patients with clearance achieved: 94.2%
[1]; mITT, Table 1
  Time (days) to S. aureus bloodstream clearance, Median (95% CI): 4 (3, 5) days
[1]; subgroup analysis, 5/10 vs 5/6
  Response rate (primary endpoint), non-white patients: 50.0%
[1]; subgroup analysis, 17/20 vs 11/19
  Response rate (primary endpoint), age group of 18-34 years: 85.0%
[2]; human, in vivo
  AE anemia, patients: 11.0%
  AE gamma-glutamyl-transferase increased, patients: 6.3%
  AE nausea, patients: 10.5%
  Adverse events leading to discontinuation: 9.4%
  Drug-related AEs leading to discontinuation: 4.7%
  Drug-related AEs leading to discontinuation: allergy-type events: 4 n
  Drug-related AEs leading to discontinuation: hepatic function test abnormalities: 1 n
  Drug-related AEs leading to discontinuation: leukopenia: 1 n
  Drug-related AEs leading to discontinuation: nausea/vomiting: 4 n
  Drug-related AEs leading to discontinuation: seizure: 1 n
  Patients who experienced a serious adverse event (SAE): 18,8%
  Patients who experienced a severe AE: 15.2%
  Patients who experienced an AE: 63.4%
  Study treatment discontinuation, reason non-related AE: 3.2%
  Study treatment discontinuation, reason related AE: 4.8%
  Study-drug-related AEs: 13.1%
[2]; mITT population
  Study discontinuation, reason death: 9.0%
  Study treatment discontinuation, reason death: 4.8%
MSSA
  Isolates at MIC 0.25 mg/L: 51%
  Isolates at MIC 0.5 mg/L: 48%
  Isolates at MIC either 0.25 mg/L or 0.5 mg/L: 99%
MRSA
  Isolates at MIC 0.5 mg/L: 14%
  Isolates at MIC 1 mg/L: 58%
  Isolates at MIC 2 mg/L: 28%
S. aureus; listed as cefobiprole
  On-treatment increases in MICs by ≥four-fold, patients: No on-treatment increases
[3]
  Early clinical response and investigator-assessed clinical success vs vancomycin and aztreonam: non-inferior to vancomycin and aztreonam
[4]
  Risk of convulsions: potential for an increased risk of convulsions
